The record followed here is ChEMBL document CHEMBL1158310, “Cytotoxic Degradation Product of Physostigmine” (1996).

Test [1] is described as follows: Cytotoxicity against human KBVIN cells in presence of vinblastine. Particulars: read-out: ED50 (the source's name). The test is classed as functional.
A short description of test [2]: Cytotoxicity against human KBVIN cells in absence of vinblastine. Particulars: read-out: ED50 (the source's name). It is filed as functional.
A further test concerns KB. Briefly: Cytotoxicity against human KB cells. The test is classed as functional. Particulars: read-out: ED50 (the source's name).
The next test concerns Lu1. The test is described as follows: Cytotoxicity against human Lu1 cells. To be noted: read-out: ED50 (the source's name). The test is classed as functional.
The test system of another test is LNCaP. Briefly: Cytotoxicity against human LNCAP cells. The test is classed as functional. To be noted: read-out: ED50 (the source's name).
Test [3] can be described thus: Antimitotic activity in rat ASK cells assessed as astrocyte generation at […] by light microscopy. The test is classed as functional. To be noted: read-out: ED50 (the source's name).
The subject of the next test is ZR-75-1. Briefly: Cytotoxicity against human ZR-75-1 cells. The test is classed as functional, cell-based.

Converted amounts (≈) assume the structure as drawn. The source made the active and inactive calls. The calls are words filed in the database; no cut-off is given here.

As to `CCNC1=CC2=N[C@H]3N(C)CC[C@@]3(C)C2=CC1=O`, the EC50 is 0.6 µg/mL in test [1]; 0.8 µg/mL (≈ 3.26 µM) in test [2]; 0.2 µg/mL (≈ 0.815 µM) in the test with KB; 1.5 µg/mL (≈ 6.11 µM) in the test on Lu1; 0.3 µg/mL (≈ 1.22 µM) with LNCaP; 1.9 µg/mL (≈ 7.74 µM) in test [3]. The outcome in the test on ZR-75-1 was inactive.

Take `CN1CC[C@@]2(C)C3=CC(=O)C(=O)C=C3N(C)[C@@H]12` [RUBRESERINE]: the EC50 in test [1] was over 20 µg/mL; in test [2], 16.8 µg/mL (≈ 72.3 µM); in the test on KB, over 20 µg/mL; in the test on Lu1, over 20 µg/mL; with LNCaP, 13.1 µg/mL (≈ 56.4 µM); in test [3] it was over 20 µg/mL. The outcome with ZR-75-1 was Active.
